The results in this text go back to ChEMBL document CHEMBL1128636, “()-1-Azabicyclo[2.2.1]heptan-3-one, O-(3-methyl-5-aryl-2-penten-4-ynyl) oximes: Potent muscarinic agonists” (Bioorg Med Chem Lett, 1995).

Test [1] has as its target T1, Muscarinic acetylcholine receptor M1 (Homo sapiens) (UniProt P11229).
T1 sequence (whole entry): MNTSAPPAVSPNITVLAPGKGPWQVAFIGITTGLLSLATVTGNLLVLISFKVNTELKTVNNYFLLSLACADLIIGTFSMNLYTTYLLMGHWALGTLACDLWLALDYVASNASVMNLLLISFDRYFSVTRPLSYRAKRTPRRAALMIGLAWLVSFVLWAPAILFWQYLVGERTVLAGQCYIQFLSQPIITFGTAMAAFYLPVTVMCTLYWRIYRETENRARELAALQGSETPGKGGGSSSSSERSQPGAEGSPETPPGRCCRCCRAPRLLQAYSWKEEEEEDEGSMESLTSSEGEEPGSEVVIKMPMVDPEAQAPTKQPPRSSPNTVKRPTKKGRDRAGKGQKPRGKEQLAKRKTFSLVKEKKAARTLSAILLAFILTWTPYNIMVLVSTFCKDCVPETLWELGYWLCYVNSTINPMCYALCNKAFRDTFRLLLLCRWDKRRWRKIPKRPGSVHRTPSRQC
To be noted: NIH3T3.
Description: Agonistic efficacy in human m1 muscarinic receptor expressed with the marker gene beta-galactosidase in NIH 3T3 cells.

In test [2] the target is Muscarinic acetylcholine receptor.
Description: Binding affinity against muscarinic receptor using radioligand [3H]cis-methyldioxolane (CMD) binding assay in membrane preparations of rat neocortex.
The target in test [3] is T2, Muscarinic acetylcholine receptor M2 (Homo sapiens) (UniProt P08172).
T2 sequence (whole entry): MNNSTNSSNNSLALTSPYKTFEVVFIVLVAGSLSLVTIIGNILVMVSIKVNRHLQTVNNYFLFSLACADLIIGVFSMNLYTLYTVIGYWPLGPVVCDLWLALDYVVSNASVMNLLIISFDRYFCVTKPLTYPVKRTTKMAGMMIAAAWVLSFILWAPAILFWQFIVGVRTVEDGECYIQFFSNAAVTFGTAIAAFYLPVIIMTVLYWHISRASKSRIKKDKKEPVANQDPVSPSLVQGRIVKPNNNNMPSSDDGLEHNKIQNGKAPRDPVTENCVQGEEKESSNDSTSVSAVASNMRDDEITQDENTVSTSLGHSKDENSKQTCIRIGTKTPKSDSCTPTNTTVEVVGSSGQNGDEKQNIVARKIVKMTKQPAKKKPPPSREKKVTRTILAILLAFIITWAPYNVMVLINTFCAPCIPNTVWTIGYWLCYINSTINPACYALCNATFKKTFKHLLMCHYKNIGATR
The conditions noted are these: NIH3T3.
Description: Agonistic efficacy in human m2 muscarinic receptor expressed with the marker gene beta-galactosidase in NIH 3T3 cells.

For test [4], the target named is Muscarinic acetylcholine receptor. This is another data set of the same source.
Description: Binding affinity against muscarinic receptor using radioligand [3H]quinuclidinyl benzilate (QNB) binding assay in membrane preparations of rat neocortex.
In test [5] the target is T3, Muscarinic acetylcholine receptor (Rattus norvegicus) (UniProt P08482+P08483+P08485+P08911+P10980). The format is tissue-based. To be noted: Neocortex; 100 nM.
The target in test [6] is T3, Muscarinic acetylcholine receptor (Rattus norvegicus). The format is tissue-based. To be noted: Neocortex; 1 uM.
Test [7] addresses Muscarinic acetylcholine receptor. The format is tissue-based, Neocortex.
For test [8], the target named is T1, Muscarinic acetylcholine receptor M1 (Homo sapiens). As to the kind of experiment: Agonistic efficacy in human m1 muscarinic receptor which was expressed with the marker gene beta-galactosidase in NIH 3T3 cells; No data. To be noted: NIH3T3. The format is functional, cell-based.

Each structure is given as a SMILES string. Activity calls are given as the source filed them. No cut-off for these calls is given here.

Compound `C/C(C#Cc1ccc(F)cc1)=C\CO/N=C1\CN2CCC1C2` (configuration not stated) had an ED50 in test [1] of 31.5 nM.
The IC50 is the point on the concentration scale where inhibition reaches its midpoint. High values mean weaker potency in that assay, low ones greater potency in that assay. As for `C#C/C(C)=C/CO/N=C1\CN2CCC1C2` (configuration not stated), the IC50 in test [2] is recorded as 4 nM. For the same compound, the ED50 in test [1] stood at 85 nM; in test [3], 11 nM.
Regarding `COc1cccc(C#C/C(C)=C\CO/N=C2\CN3CCC2C3)c1` (configuration not stated), the ED50 in test [1] stood at 51.1 nM.
`COc1ccc(C#C/C(C)=C/CO/N=C2\CN3CCC2C3)cc1OC` (configuration not stated): the IC50 in test [2] is on record as 5.37 nM; in test [4], 2380 nM. Further, the figures for the ED50 in test [1] and in test [3] were 74 nM and 1.8 nM, respectively.
Turning to `C/C(C#Cc1ccccc1)=C/CO/N=C1\CN2CCC1C2` (configuration not stated), the results for the IC50 in test [2] and in test [4] were 0.15 nM and 44 nM, respectively.
The inhibition is the share of the control response that was lost under treatment. In the case of `COc1ccc(C#C/C(C)=C/CO/N=C2/CN3CCC2C3)cc1` (configuration not stated), the inhibition was 33% in test [5] and 19% in test [6].
For `C/C(C#Cc1ccc(Cl)c(Cl)c1)=C\CO/N=C1/CN2CCC1C2` (configuration not stated) the same measures were 49% and 39%.
Regarding `C/C(C#Cc1cccs1)=C\CO/N=C1/CN2CCC1C2` (configuration not stated), the IC50 is 80.47 nM in test [2] and 5593 nM in test [4].
Take `C#C/C(C)=C\CO/N=C1/CN2CCC1C2` (configuration not stated): the IC50 in test [2] is 12 nM; in test [4], 4234 nM. Besides, the ED50 in test [1] was 30 nM; in test [3] it was 45 nM.
For `COc1cccc(C#C/C(C)=C/CO/N=C2/CN3CCC2C3)c1` (configuration not stated), the ED50 in test [1] is 264 nM.
In the case of `C#C/C(C)=C\CO/N=C1\CN2CCC1C2` (configuration not stated), the ED50 in test [1] came out at 12 nM; in test [3], 23.7 nM.
On to `C/C(C#Cc1ccc(Cl)c(Cl)c1)=C\CO/N=C1\CN2CCC1C2` (configuration not stated), for which the values for the IC50 in test [2] and in test [4] were 0.8 nM and 171 nM, respectively. In addition, the ED50 in test [1] was found to be 398 nM; in test [3], 940 nM.
Consider `C/C(C#Cc1ccc(C)cc1)=C\CO/N=C1\CN2CCC1C2` (configuration not stated), for which the figures for the IC50 in test [2] and in test [4] were 22.16 nM and 681 nM, respectively.
Take `COc1ccc(C#C/C(C)=C\CO/N=C2/CN3CCC2C3)cc1OC` (configuration not stated): the IC50 is given as 4.6 nM in test [2] and 8547 nM in test [4]. Besides, the values for the ED50 in test [1] and in test [3] were 162 nM and 0.9 nM, respectively.
`C/C(C#Cc1ccc(Cl)c(Cl)c1)=C/CO/N=C1/CN2CCC1C2` (configuration not stated): the inhibition worked out at 14% in test [5] and 51% in test [6].
As to `C/C(C#Cc1ccc(Cl)cc1)=C/CO/N=C1/CN2CCC1C2` (configuration not stated), the IC50 in test [2] is given as 0.45 nM; in test [4] it was 81 nM. The ED50 was 29.1 nM in test [1] and 2.8 nM in test [3].
Take `C/C(C#Cc1ccc(C)cc1)=C\CO/N=C1/CN2CCC1C2` (configuration not stated): the inhibition in test [5] turned out to be 29%; in test [6], 31%.
On to `C/C(C#Cc1cccs1)=C/CO/N=C1/CN2CCC1C2` (configuration not stated), for which the IC50 in test [2] stood at 4.1 nM; in test [4] it was 608 nM. Further, the results for the ED50 in test [1] and in test [3] were 11.6 nM and 2.5 nM, respectively.
Consider `C/C(C#Cc1ccccc1)=C/CO/N=C1/CN2CCC1C2` (configuration not stated), for which the values for the IC50 in test [2] and in test [4] were 1.07 nM and 181 nM, respectively. The ED50 in test [1] was determined as 120 nM; in test [3], 4.2 nM.
Turning to `COc1ccc(C#C/C(C)=C\CO/N=C2\CN3CCC2C3)cc1OC` (configuration not stated), the IC50 in test [2] came to 1.38 nM; in test [4] it was 1245 nM. This compound gave an ED50 in test [1] of 55 nM.
Take `C/C(C#Cc1cccs1)=C\CO/N=C1\CN2CCC1C2` (configuration not stated): the IC50 in test [2] is reported as 4.96 nM; in test [4], 968 nM. Besides, the ED50 in test [1] stood at 0.4 nM; in test [3] it was 24 nM.
Regarding `C/C(C#Cc1ccc(C)cc1)=C/CO/N=C1\CN2CCC1C2` (configuration not stated), the IC50 came out at 0.57 nM in test [2] and 64 nM in test [4]. Also, the figures for the ED50 in test [1] and in test [3] were 10.5 nM and 10.7 nM, respectively.
For the compound `C/C(C#Cc1ccc(Cl)c(Cl)c1)=C/CO/N=C1\CN2CCC1C2` (configuration not stated), the inhibition in test [5] amounted to 46%; in test [6], 77%.
`COc1cccc(C#C/C(C)=C/CO/N=C2\CN3CCC2C3)c1` (configuration not stated): the ED50 in test [1] came to 93.2 nM.
For the compound `C[N+](C)(C)CCOC(N)=O`, the ED50 in test [3] amounted to 22.8 nM.
With `COc1ccc(C#C/C(C)=C/CO/N=C2\CN3CCC2C3)cc1` (configuration not stated), the IC50 worked out at 12 nM in test [2] and 1413 nM in test [4].
For `C#C/C(C)=C/CO/N=C1/CN2CCC1C2` (configuration not stated) the same measures were 21 nM and 19308 nM.
For `C/C(C#Cc1ccc(Cl)cc1)=C\CO/N=C1\CN2CCC1C2` (configuration not stated) the same measures were 27.12 nM and 439 nM.
Taken in the same sequence, the figures for `C/C(C#Cc1ccccc1)=C\CO/N=C1\CN2CCC1C2` (configuration not stated) were 12.4 nM and 1587 nM.
Turning to `C/C(C#Cc1ccc(Cl)cc1)=C\CO/N=C1/CN2CCC1C2` (configuration not stated), the inhibition in test [5] amounted to 57%; in test [6], 52%.
In the case of `COc1ccc(C#C/C(C)=C\CO/N=C2/CN3CCC2C3)cc1` (configuration not stated), the IC50 in test [2] is 17 nM; in test [4], 1992 nM. Also, the values for the ED50 in test [1] and in test [3] were 8.6 nM and 10.7 nM, respectively.
In the case of `C/C(C#Cc1ccc(C)cc1)=C/CO/N=C1/CN2CCC1C2` (configuration not stated), the IC50 is 5.02 nM in test [2] and 383 nM in test [4]. The ED50 in test [1] amounted to 83.3 nM; in test [3], 4.4 nM.
Take `COc1ccc(C#C/C(C)=C\CO/N=C2\CN3CCC2C3)cc1` (configuration not stated): the IC50 in test [2] was found to be 0.1 nM; in test [7], 60 nM. In addition, the ED50 was 8.5 nM in test [1] and 8.9 nM in test [3].
As to `C/C(C#Cc1ccc(F)cc1)=C/CO/N=C1\CN2CCC1C2` (configuration not stated), in test [1], the ED50 worked out at 20.9 nM.
Turning to `C/C(C#Cc1cccs1)=C/CO/N=C1\CN2CCC1C2` (configuration not stated), the figures for the IC50 in test [2] and in test [4] were 0.02 nM and 21 nM, respectively. Also, the results for the ED50 in test [1] and in test [3] were 6.2 nM and 2.3 nM, respectively.
Take `C/C(C#Cc1ccc(F)cc1)=C/CO/N=C1/CN2CCC1C2` (configuration not stated): in test [1], the ED50 amounted to 48 nM.
Regarding `C/C(C#Cc1ccccc1)=C\CO/N=C1/CN2CCC1C2` (configuration not stated), the inhibition came out at 31% in test [5] and 18% in test [6].
`C/C(C#Cc1ccc(F)cc1)=C\CO/N=C1/CN2CCC1C2` (configuration not stated) yielded an ED50 in test [1] of 156 nM.
`C/C(C#Cc1ccc(Cl)cc1)=C/CO/N=C1\CN2CCC1C2` (configuration not stated): the ED50 entry in test [8] was “inactive”.
